According to patent US11459332B2, “Substituted 2-azabicyclo[3.1.0]hexanes as TRK kinases inhibitors” (FOCHON BIOSCIENCES, LTD., priority 2018, dated 2022):

Key:
Assay type in all cases: cell-based
TPM3-TRKA = target: T1, TPM3-TRKA (Homo sapiens, UniProt P04629); assay: Engineered Ba/F3 cell proliferation inhibition (MTS), TPM3-TRKA; conditions: Ba/F3-TPM3-TRKA cells, 72 h
T1 construct: TPM3 (fusion partner, N-terminal part); expressed in transfected cells; the other entry of the earlier key: TPM3 (P06753, Tropomyosin alpha-3 chain)
Text: (§1) MTS testing kit was purchased from Promega (Madison, Wis., USA). The RPMI-1640, Fetal bovine serum and Penicillin-Streptomycin were purchased from Gibco (San Francisco, Calif., USA). Dimethyl sulfoxide (DMSO) and Puromycin were purchased from Sigma (St. Louis, Mo., USA). Mouse interleukin-3 (IL-3) was purchased from Cell signaling Technology (Boston, Mass., USA).
(§2) To investigate whether a compound is able to inhibit the activity of TRK fusion mutation in cells, a mechanism-based assay using engineered Ba/F3 cell lines stably overexpressing oncogenic rearrangement or gene mutation of TRK (TPM3-TRKA, TPM3-TRKA-G595R, AFAP1-TRKB, ETV6-TRKC and ETV6-TRKC-G623R) were developed. In this assay, inhibition of TRK fusion mutation was detected by the cell proliferation inhibition of engineered Ba/F3 cells. Engineered Ba/F3 cells were cultured in culture flasks to 40-80% confluence in RPMI-1640 supplemented with 10% fetal bovine serum, 2 ug/mL puromycin. Cells were collected and plated onto 96-well plates at desired cell density (Ba/F3-TPM3-TRKA: 3×10^4/mL, Ba/F3-TPM3-TRKA-G595R: 1×10^5/mL, Ba/F3-AFAP1-TRKB: 1×10^5/mL, Ba/F3-ETV6-TRKC: 3×10^4/mL, Ba/F3-ETV6-TRKC-G623R: 3×10^4/mL). Plates were incubated at 37° C., with 5% CO2 for 4 h. Compounds were then added to the plates with the final compound concentrations of 10000, 3333, 1111, 270, 123, 41.2, 13.7, 4.6 and 1.5 nM. Plates were incubated at 37° C., with 5% CO2 for 72 h. A mixture of 20 μl MTS/100 μl medium were added to each well and the plates were incubated at 37° C., with 5% CO2 for exactly 2 h. The reaction was stopped by adding 25 μl of 10% SDS per well. The absorbance was measured at 490 nm and 650 nm (reference wavelength). IC50 was calculated using GraphPad Prism 5.0 software.

AFAP1-TRKB = target: T2, AFAP1-TRKB (Homo sapiens, UniProt Q16620); assay: Engineered Ba/F3 cell proliferation inhibition (MTS), AFAP1-TRKB; conditions: Ba/F3-AFAP1-TRKB cells, 72 h
T2 construct: AFAP1 (fusion partner, N-terminal part); expressed in transfected cells; the other entry of the earlier key: AFAP1 (Q8N556, Actin filament-associated protein 1)
Text: as §1
as §2, with “Compounds were then added to the plates with the final compound concentrations of 10000, 3333, 1111, 270, 123, 41.2, 13.7, 4.6 and 1.5 nM. Plates were incubated at 37° C., with 5% CO2 for 72 h. A mixture of 20 μl MTS/100 μl medium were added to each well and the plates were incubated at 37° C., with 5% CO2 for exactly 2 h. The reaction was stopped by adding 25 μl of 10% SDS per well.” left out

KM12 cells = KM12 cells proliferation inhibition (MTS), mechanism-based TRK assay; conditions: Homo sapiens, 72 h
Text: as §1
To investigate whether a compound is able to inhibit the activity of TRK in cells, a mechanism-based assay using KM12 cells was developed. In this assay, inhibition of TRK was detected by the inhibition of KM12 cells proliferation. KM12 cells were cultured in culture flasks to 40-80% confluence in RPMI-1640 plus 10% fetal bovine serum. Cells were collected and plated onto 96-well plates at 1000 cells/well. Plates were incubated at 37° C., with 5% CO2 for 4 h. Compounds were added to the plates, the final compound concentrations were […], 123.5, 41.2, 13.7, 4.6 and 1.5 nM. Place plates at 37° C., with 5% CO2 for KM12 cells 72 h. 20 μl MTS/100 μl medium mixture solution were added to each well and incubate the plates for exactly 2 h. Stop the reaction by adding 25 μl 10% SDS per well. Measure absorbance at 490 nm and 650 nm (reference wavelength). IC50 was calculated using GraphPad Prism 5.0.

ETV6-TRKC = target: T3, ETV6-TRKC (Homo sapiens, UniProt Q16288); assay: Engineered Ba/F3 cell proliferation inhibition (MTS), ETV6-TRKC; conditions: Ba/F3-ETV6-TRKC cells, 72 h
T3 construct: ETV6 (fusion partner, N-terminal part); expressed in transfected cells; the other entry of the earlier key: ETV6 (P41212, Transcription factor ETV6)
Text: as §1, §2

TPM3-TRKA-G595R = target: T4, TPM3-TRKA-G595R (Homo sapiens, UniProt P04629, G595R); assay: Engineered Ba/F3 cell proliferation inhibition (MTS), TPM3-TRKA-G595R; conditions: Ba/F3-TPM3-TRKA-G595R cells, 72 h
T4 construct: TPM3 (fusion partner, N-terminal part); expressed in transfected cells; the other entry of the earlier key: TPM3 (P06753, Tropomyosin alpha-3 chain)
Text: as §1, §2

ETV6-TRKC-G623R = target: T5, ETV6-TRKC-G623R (Homo sapiens, UniProt Q16288, G623R, cells depend on it); assay: Engineered Ba/F3 cell proliferation inhibition (MTS), ETV6-TRKC-G623R; conditions: 72 h, read-out: ETV6-TRKC-G623R IC50
T5 construct: fused on or other part: P41212 (Transcription factor ETV6)
Text: as §1
as §2, with “Compounds were then added to the plates with the final compound concentrations of 10000, 3333, 1111, 270, 123, 41.2, 13.7, 4.6 and 1.5 nM. Plates were incubated at 37° C., with 5% CO2 for 72 h. A mixture of 20 μl MTS/100 μl medium were added to each well and the plates were incubated at 37° C., with 5% CO2 for exactly 2 h. The reaction was stopped by adding 25 μl of 10% SDS per well.” left out

T1 sequence (P04629 510-796 limits assumed): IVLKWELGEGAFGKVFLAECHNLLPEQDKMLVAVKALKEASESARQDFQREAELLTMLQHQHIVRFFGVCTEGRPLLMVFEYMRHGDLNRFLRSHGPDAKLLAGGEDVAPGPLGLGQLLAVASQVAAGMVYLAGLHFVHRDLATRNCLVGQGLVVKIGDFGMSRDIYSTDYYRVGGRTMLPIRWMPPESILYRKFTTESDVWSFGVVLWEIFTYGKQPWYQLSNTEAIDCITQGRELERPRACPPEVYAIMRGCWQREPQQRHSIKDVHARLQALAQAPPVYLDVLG
T3 sequence (Q16288 530-825 isoform Q16288-3 limits assumed): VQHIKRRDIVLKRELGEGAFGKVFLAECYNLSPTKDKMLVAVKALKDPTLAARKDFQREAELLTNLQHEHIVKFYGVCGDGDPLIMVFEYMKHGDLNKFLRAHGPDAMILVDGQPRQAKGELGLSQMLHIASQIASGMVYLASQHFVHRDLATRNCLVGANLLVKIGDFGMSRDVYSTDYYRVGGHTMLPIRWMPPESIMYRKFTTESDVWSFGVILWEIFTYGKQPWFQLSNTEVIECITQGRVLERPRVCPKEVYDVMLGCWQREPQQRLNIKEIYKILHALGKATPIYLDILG
T4 sequence (P04629 510-796 G595R limits assumed): as the sequence (P04629 510-796 limits assumed) above, with G86R counted along it
T5 sequence (Q16288 whole entry G623R, the tested form may be a part): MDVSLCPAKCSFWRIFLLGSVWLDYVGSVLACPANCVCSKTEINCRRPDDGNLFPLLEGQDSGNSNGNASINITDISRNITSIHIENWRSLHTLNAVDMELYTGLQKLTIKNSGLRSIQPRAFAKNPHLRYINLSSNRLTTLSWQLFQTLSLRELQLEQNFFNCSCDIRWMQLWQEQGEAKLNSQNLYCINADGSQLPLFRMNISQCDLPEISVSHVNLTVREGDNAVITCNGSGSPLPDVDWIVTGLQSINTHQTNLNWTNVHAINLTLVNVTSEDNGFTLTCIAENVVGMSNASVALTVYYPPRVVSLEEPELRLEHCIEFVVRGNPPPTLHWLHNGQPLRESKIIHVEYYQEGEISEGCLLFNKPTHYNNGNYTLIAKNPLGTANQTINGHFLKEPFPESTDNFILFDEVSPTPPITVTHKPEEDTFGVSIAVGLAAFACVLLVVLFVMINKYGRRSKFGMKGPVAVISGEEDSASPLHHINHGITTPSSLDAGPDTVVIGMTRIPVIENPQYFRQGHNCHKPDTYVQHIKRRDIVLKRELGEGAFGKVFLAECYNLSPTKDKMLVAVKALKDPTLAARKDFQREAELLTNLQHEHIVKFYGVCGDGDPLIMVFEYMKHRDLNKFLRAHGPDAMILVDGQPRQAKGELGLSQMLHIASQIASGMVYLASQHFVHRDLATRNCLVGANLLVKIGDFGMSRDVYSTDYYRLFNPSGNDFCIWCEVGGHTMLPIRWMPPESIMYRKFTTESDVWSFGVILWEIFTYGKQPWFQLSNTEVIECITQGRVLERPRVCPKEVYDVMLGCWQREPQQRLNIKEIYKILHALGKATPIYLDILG
T2 sequence (Q16620 538-822 limits assumed): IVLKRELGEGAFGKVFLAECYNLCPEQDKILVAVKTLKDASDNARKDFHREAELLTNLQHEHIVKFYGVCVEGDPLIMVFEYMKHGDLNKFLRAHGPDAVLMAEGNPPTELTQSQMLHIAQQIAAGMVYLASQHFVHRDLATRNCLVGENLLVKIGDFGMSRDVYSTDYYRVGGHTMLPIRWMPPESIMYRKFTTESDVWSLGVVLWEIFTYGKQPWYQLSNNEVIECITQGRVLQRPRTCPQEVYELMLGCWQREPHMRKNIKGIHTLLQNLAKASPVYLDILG

IC50 (TPM3-TRKA)	IC50 (AFAP1-TRKB)	IC50 (ETV6-TRKC)	IC50 (TPM3-TRKA-G595R)	GI50 (ETV6-TRKC-G623R)	Structure (SMILES)	IC50 (KM12 cells)
3 nM	14 nM	1 nM			O=C(Nc1cnn2ccc(N3CC[C@H]4C[C@]43c3cc(F)ccc3F)nc12)N1CC[C@H](O)C1 [Example 1, (S)—N-(5-((1R,5S)-1-(2,5-difluorophenyl)-2-azabicyclo[3.1.0]hexan-2-yl)pyrazolo[1,5-a]pyrimidin-3-yl)-3-hydroxypyrrolidine-1-carboxamide]	1 nM
2 nM		1 nM	15 nM	6 nM	CC(C)c1nnc(-c2cnn3ccc(N4CC[C@H]5C[C@]54c4cc(F)ccc4F)nc23)s1 [Example 26, 2-(5-((1R,5S)-1-(2,5-difluorophenyl)-2-azabicyclo [3.1.0]hexan-2-yl)pyrazolo[1,5-a]pyrimidin-3-yl)-5-isopropyl-1,3,4-thiadiazole]	4 nM
2 nM		11 nM	21 nM	20 nM	CC(C)(C)c1nnc(-c2cnn3ccc(N4CC[C@H]5C[C@]54c4cc(F)ccc4F)nc23)s1 [Example 27, 2-(tert-butyl)-5-(5-((1R,5S)-1-(2,5-difluorophenyl)-2-azabicyclo[3.1.0]hexan-2-yl)pyrazolo[1,5-a]pyrimidin-3-yl)-1,3,4-thiadiazole]	11 nM
